Two compounds from article PMC6827283, “A Na^+ leak channel cloned from Trichoplax adhaerens extends extracellular pH and Ca^2+ sensing for the DEG/ENaC family close to the base of Metazoa” (The Journal of Biological Chemistry, 2019) can be followed below.

The target in experiment [1] is T1, TadNaC6 (Trichoplax adhaerens, UniProt A0A5J6BVG3).
T1 construct: gene ASIC6; full-length untagged channel from pTadNaC6-IR-EGFP (pIRES2-EGFP, EGFP expressed separately) in CHO-K1 cells; functional homomer, trimer by homology; cloning primers encode N-terminus MMAKGKIDH and C-terminus ADATNPDM-stop
T1 sequence (A0A5J6BVG3 1-492): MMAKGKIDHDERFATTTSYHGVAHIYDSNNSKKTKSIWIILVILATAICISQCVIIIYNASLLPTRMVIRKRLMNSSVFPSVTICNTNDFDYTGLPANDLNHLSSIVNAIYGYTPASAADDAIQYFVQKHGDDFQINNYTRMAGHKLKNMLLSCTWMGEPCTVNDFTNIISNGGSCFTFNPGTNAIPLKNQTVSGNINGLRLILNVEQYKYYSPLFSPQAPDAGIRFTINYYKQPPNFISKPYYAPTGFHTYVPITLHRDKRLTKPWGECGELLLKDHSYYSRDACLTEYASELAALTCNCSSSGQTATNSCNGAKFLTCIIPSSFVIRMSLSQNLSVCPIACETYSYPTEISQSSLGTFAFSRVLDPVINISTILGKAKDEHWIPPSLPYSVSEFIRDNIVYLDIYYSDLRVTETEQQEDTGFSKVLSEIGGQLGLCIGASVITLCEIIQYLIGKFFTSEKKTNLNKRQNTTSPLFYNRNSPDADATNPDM
Put plainly: whole-cell patch clamp, CHO-K1 cells. Particulars: agonist (activation); perfusion from pH 5 to pH 7.5 (figure legend pH 7.4); 10 μM to 3 mM tested; no EC50. The format is cell-based.

Experiment [2] concerns the target T1, TadNaC6. Put plainly: whole-cell patch clamp, CHO-K1 cells. The class given is cell-based. On the technique in general: The patch-clamp technique gives a direct electrical read-out from membranes.

`N=C(N)NC(=O)c1nc(Cl)c(N)nc1N` [amiloride]: the “fold current at 3 mM relative to pH 9 without amiloride” value in experiment [1] is reported as ~ 12 fold. As to `N=C(N)c1ccc(/N=N/Nc2ccc(C(=N)N)cc2)cc1` [diminazene], the IC50 (in general, the concentration that inhibits the measured activity by half) in experiment [2] was determined as 578 ± 69.4 µM.
